Results as given in US12138256B2, “Treatment of cardiopulmonary disorders” (Bayer Aktiengesellschaft, priority 2021, dated 2024).

Tested on: sGC (cGMP)
Experiment: Phase I, healthy male subjects, 7 days once daily inhalation: cGMP in blood samples (C-4.1)
Type: in vivo, human
Conditions: for time of cGMP peak after administration: first inhalation; for mean peak cGMP: after repeated dosing for 7 days; for peak mean±SD cGMP: first profile day
Method: Healthy White male subjects, aged 18 to 45 years and with a body mass index (BMI) above/equal 18.5 and below/equal 29.9 kg/m2 were treated in a clinical pharmacological phase I study on seven days with inhaled once daily doses of 480 μg or 1000 μg or 2000 μg (2 capsules of 1000 μg) (nominal dose) of dry powder formulations of example 2 or Placebo. The subjects inhaled the drug powder from capsules (see under D-1, e.g. tables 22 and 23) inserted into a handheld inhalation device by one deep inhalative breath. The dry powder formulation of the drug is dispersed into the airstream and fine particles are transported into the deep parts of the lung where it is intended to cause a vasodilation of the blood vessels in PH patients for a substantial reduction of increased blood pressure in the central pulmonary blood vessels in PAH patients or other subtypes of PH. This effect cannot be shown in subjects with healthy lungs. In addition inhaled drug causes a dilation of the bronchial airways and thus also improves disease states of lung diseases in PH patients with pathological bronchoconstriction. This effect was measured via bodyplethysmography as reduction of Specific Airway Resistance in healthy subjects. After the deep inhalative breath the subjects hold breath for 2 seconds, so that the dry powder drug condenses from the airstream onto the surface of the deeper lung areas where it is deposited close to its site of intended pharmacological action. The drug dissolutes over the day and equilibrates the lung via lining fluid.
Drug activity in healthy men was controlled in the healthy subjects by analysing blood samples for cGMP, the immediate product of sGC pharmacological activation prior after the first and after the last drug inhalation of the 7 days treatment in comparison to measurements on the pretreatment day for all doses.
This prolonged activity in comparison to systemic drug concentration is caused by the mode of administration as inhaled dry powder, that deposits drug in the deeper part of the lung leading to an active drug concentration over 24 h after a once daily inhalation.
At 10 days after the first treatment, mean cGMP concentrations had returned close to the concentration observed at the pre-dosing day.

O=C(O)c1ccc(CCN(CCc2ccccc2OCc2ccc(-c3ccc(C(F)(F)F)cc3)cc2Cl)[C@H]2CCCc3nc(C(=O)O)ccc32)cc1 [example 2, (5S)-{[2-(4-Carboxyphenyl)ethyl][2-(2-{[3-chloro-4′-(trifluoromethyl)biphenyl-4-yl]methoxy}phenyl)-ethyl]amino}-5,6,7,8-tetrahydroquinoline-2-carboxylic acid]
cGMP, mean ± SD (1000 μg, 5 D 00 H 00 M (trough)): 8.50 ± 2.13 nmol/L
cGMP, mean ± SD (1000 μg, 6 D 00 H 00 M (trough)): 9.23 ± 2.12 nmol/L
cGMP, mean ± SD (1000 μg, 7 D 00 H 00 M (trough)): 9.66 ± 2.30 nmol/L
cGMP, mean ± SD (1000 μg, 7 D 02 H 00 M): 11.84 ± 2.18 nmol/L
cGMP, mean ± SD (1000 μg, 7 D 04 H 00 M): 15.76 ± 2.29 nmol/L
cGMP, mean ± SD (1000 μg, 7 D 06 H 00 M): 16.70 ± 2.96 nmol/L
cGMP, mean ± SD (1000 μg, 7 D 08 H 00 M): 15.91 ± 3.86 nmol/L
cGMP, mean ± SD (1000 μg, 7 D 12 H 00 M): 14.10 ± 4.55 nmol/L
cGMP, mean ± SD (1000 μg, 7 D 15 H 00 M): 12.91 ± 3.72 nmol/L
cGMP, mean ± SD (1000 μg, 8 D 00 H 00 M): 9.38 ± 3.11 nmol/L
cGMP, mean ± SD (1000 μg, 8 D 12 H 00 M): 7.21 ± 2.24 nmol/L
cGMP, mean ± SD (1000 μg, 9 D 00 H 00 M): 6.29 ± 1.86 nmol/L
cGMP, mean ± SD (1000 μg, 9 D 12 H 00 M): 5.93 ± 1.39 nmol/L
cGMP, mean ± SD (1000 μg, 10 D 00 H 00 M): 6.33 ± 2.30 nmol/L
cGMP, mean ± SD (1000 μg, −0 D 09 H 00 M (baseline)): 4.18 ± 0.82 nmol/L
cyclic guanosine monophosphate changes from baseline (1000 μg, −0 D 09 H 00 M (pretreatment day)): -0.84 ± 2.04 nmol/L
cGMP, mean ± SD (1000 μg, −0 D 12 H 00 M (baseline)): 4.26 ± 0.99 nmol/L
cyclic guanosine monophosphate changes from baseline (1000 μg, −0 D 12 H 00 M (pretreatment day)): -0.77 ± 1.72 nmol/L
cGMP, mean ± SD (1000 μg, −0 D 16 H 00 M (baseline)): 4.59 ± 1.06 nmol/L
cyclic guanosine monophosphate changes from baseline (1000 μg, −0 D 16 H 00 M (pretreatment day)): -0.43 ± 1.49 nmol/L
cGMP, mean ± SD (1000 μg, −0 D 18 H 00 M (baseline)): 4.16 ± 0.92 nmol/L
cyclic guanosine monophosphate changes from baseline (1000 μg, −0 D 18 H 00 M (pretreatment day)): -0.87 ± 1.44 nmol/L
cGMP, mean ± SD (1000 μg, −0 D 20 H 00 M (baseline)): 4.78 ± 1.37 nmol/L
cyclic guanosine monophosphate changes from baseline (1000 μg, −0 D 20 H 00 M (pretreatment day)): -0.24 ± 1.75 nmol/L
cGMP, mean ± SD (1000 μg, −0 D 22 H 00 M (baseline)): 5.10 ± 1.46 nmol/L
cyclic guanosine monophosphate changes from baseline (1000 μg, −0 D 22 H 00 M (pretreatment day)): 0.08 ± 1.41 nmol/L
cGMP, mean ± SD (1000 μg, −1 D 02 H 00 M (baseline)): 5.02 ± 1.59 nmol/L
time of cGMP peak after administration (2000 μg dose): 8 h
cyclic guanosine monophosphate changes from baseline (2000 μg once daily inhaled, 0 D 02 H 00 M): 4.78 ± 1.35 nmol/L
cyclic guanosine monophosphate changes from baseline (2000 μg once daily inhaled, 0 D 04 H 00 M): 9.18 ± 2.50 nmol/L
cyclic guanosine monophosphate changes from baseline (2000 μg once daily inhaled, 0 D 06 H 00 M): 11.04 ± 3.21 nmol/L
cyclic guanosine monophosphate changes from baseline (2000 μg once daily inhaled, 0 D 08 H 00 M): 11.69 ± 2.78 nmol/L
cyclic guanosine monophosphate changes from baseline (2000 μg once daily inhaled, 0 D 12 H 00 M): 8.56 ± 2.19 nmol/L
cyclic guanosine monophosphate changes from baseline (2000 μg once daily inhaled, 0 D 15 H 00 M): 7.54 ± 2.32 nmol/L
cyclic guanosine monophosphate changes from baseline (2000 μg once daily inhaled, 1 D 00 H 00 M): 3.48 ± 0.90 nmol/L
cyclic guanosine monophosphate changes from baseline (2000 μg once daily inhaled, 2 D 00 H 00 M): 1.57 ± 0.86 nmol/L
cyclic guanosine monophosphate changes from baseline (2000 μg once daily inhaled, 3 D 00 H 00 M): 5.17 ± 1.51 nmol/L
cyclic guanosine monophosphate changes from baseline (2000 μg once daily inhaled, 4 D 00 H 00 M): 9.33 ± 2.55 nmol/L
cyclic guanosine monophosphate changes from baseline (2000 μg once daily inhaled, 5 D 00 H 00 M): 11.10 ± 3.49 nmol/L
cyclic guanosine monophosphate changes from baseline (2000 μg once daily inhaled, 6 D 00 H 00 M): 11.71 ± 2.66 nmol/L
cyclic guanosine monophosphate changes from baseline (2000 μg once daily inhaled, 7 D 00 H 00 M): 11.36 ± 3.37 nmol/L
cyclic guanosine monophosphate changes from baseline (2000 μg once daily inhaled, 7 D 02 H 00 M): 17.33 ± 4.18 nmol/L
cyclic guanosine monophosphate changes from baseline (2000 μg once daily inhaled, 7 D 04 H 00 M): 22.23 ± 4.75 nmol/L
cyclic guanosine monophosphate changes from baseline (2000 μg once daily inhaled, 7 D 06 H 00 M): 27.39 ± 6.93 nmol/L
cyclic guanosine monophosphate changes from baseline (2000 μg once daily inhaled, 7 D 08 H 00 M): 27.83 ± 7.77 nmol/L
cyclic guanosine monophosphate changes from baseline (2000 μg once daily inhaled, 7 D 12 H 00 M): 23.33 ± 5.53 nmol/L
cyclic guanosine monophosphate changes from baseline (2000 μg once daily inhaled, 7 D 15 H 00 M): 19.08 ± 4.95 nmol/L
cyclic guanosine monophosphate changes from baseline (2000 μg once daily inhaled, 8 D 00 H 00 M): 11.17 ± 3.69 nmol/L
cyclic guanosine monophosphate changes from baseline (2000 μg once daily inhaled, 8 D 12 H 00 M): 8.02 ± 2.45 nmol/L
cyclic guanosine monophosphate changes from baseline (2000 μg once daily inhaled, 9 D 00 H 00 M): 5.64 ± 1.36 nmol/L
cyclic guanosine monophosphate changes from baseline (2000 μg once daily inhaled, 9 D 12 H 00 M): 4.57 ± 2.15 nmol/L
cyclic guanosine monophosphate changes from baseline (2000 μg once daily inhaled, 10 D 00 H 00 M): 3.26 ± 1.07 nmol/L
cyclic guanosine monophosphate changes from baseline (2000 μg, 0 D 00 H 00 M): 0.68 ± 1.14 nmol/L
cGMP, mean ± SD (2000 μg, 0 D 00 H 00 M (baseline)): 4.83 ± 2.52 nmol/L
cGMP, mean ± SD (2000 μg, 0 D 02 H 00 M): 9.61 ± 3.65 nmol/L
cGMP, mean ± SD (2000 μg, 0 D 04 H 00 M): 14.01 ± 4.51 nmol/L
cGMP, mean ± SD (2000 μg, 0 D 06 H 00 M): 15.88 ± 5.09 nmol/L
cGMP, mean ± SD (2000 μg, 0 D 08 H 00 M): 16.52 ± 4.24 nmol/L
cGMP, mean ± SD (2000 μg, 0 D 12 H 00 M): 13.39 ± 4.01 nmol/L
cGMP, mean ± SD (2000 μg, 0 D 15 H 00 M): 12.38 ± 4.17 nmol/L
cGMP, mean ± SD (2000 μg, 1 D 00 H 00 M): 8.31 ± 2.88 nmol/L
cGMP, mean ± SD (2000 μg, 2 D 00 H 00 M): 6.40 ± 2.09 nmol/L
cGMP, mean ± SD (2000 μg, 3 D 00 H 00 M (trough)): 10.00 ± 3.51 nmol/L
cGMP, mean ± SD (2000 μg, 4 D 00 H 00 M (trough)): 14.17 ± 4.36 nmol/L
cGMP, mean ± SD (2000 μg, 5 D 00 H 00 M (trough)): 15.93 ± 5.52 nmol/L
cGMP, mean ± SD (2000 μg, 6 D 00 H 00 M (trough)): 16.54 ± 4.60 nmol/L
cGMP, mean ± SD (2000 μg, 7 D 00 H 00 M (trough)): 16.19 ± 5.02 nmol/L
cGMP, mean ± SD (2000 μg, 7 D 02 H 00 M): 22.17 ± 6.07 nmol/L
cGMP, mean ± SD (2000 μg, 7 D 04 H 00 M): 27.07 ± 7.01 nmol/L
cGMP, mean ± SD (2000 μg, 7 D 06 H 00 M): 32.22 ± 8.83 nmol/L
cGMP, mean ± SD (2000 μg, 7 D 08 H 00 M): 32.67 ± 9.48 nmol/L
cGMP, mean ± SD (2000 μg, 7 D 12 H 00 M): 28.17 ± 7.50 nmol/L
cGMP, mean ± SD (2000 μg, 7 D 15 H 00 M): 23.91 ± 6.59 nmol/L
cGMP, mean ± SD (2000 μg, 8 D 00 H 00 M): 16.00 ± 5.77 nmol/L
cGMP, mean ± SD (2000 μg, 8 D 12 H 00 M): 12.86 ± 3.96 nmol/L
cGMP, mean ± SD (2000 μg, 9 D 00 H 00 M): 10.48 ± 3.49 nmol/L
cGMP, mean ± SD (2000 μg, 9 D 12 H 00 M): 9.40 ± 3.10 nmol/L
cGMP, mean ± SD (2000 μg, 10 D 00 H 00 M): 8.09 ± 2.81 nmol/L
cGMP, mean ± SD (2000 μg, −0 D 09 H 00 M (baseline)): 3.98 ± 1.91 nmol/L
cyclic guanosine monophosphate changes from baseline (2000 μg, −0 D 09 H 00 M (pretreatment day)): -0.18 ± 0.90 nmol/L
cGMP, mean ± SD (2000 μg, −0 D 12 H 00 M (baseline)): 4.43 ± 2.24 nmol/L
cyclic guanosine monophosphate changes from baseline (2000 μg, −0 D 12 H 00 M (pretreatment day)): 0.28 ± 0.97 nmol/L
cGMP, mean ± SD (2000 μg, −0 D 16 H 00 M (baseline)): 4.44 ± 2.15 nmol/L
cyclic guanosine monophosphate changes from baseline (2000 μg, −0 D 16 H 00 M (pretreatment day)): 0.29 ± 1.17 nmol/L
cGMP, mean ± SD (2000 μg, −0 D 18 H 00 M (baseline)): 4.32 ± 1.33 nmol/L
cyclic guanosine monophosphate changes from baseline (2000 μg, −0 D 18 H 00 M (pretreatment day)): 0.17 ± 0.78 nmol/L
cGMP, mean ± SD (2000 μg, −0 D 20 H 00 M (baseline)): 4.63 ± 1.86 nmol/L
cyclic guanosine monophosphate changes from baseline (2000 μg, −0 D 20 H 00 M (pretreatment day)): 0.48 ± 0.71 nmol/L
cGMP, mean ± SD (2000 μg, −0 D 22 H 00 M (baseline)): 4.81 ± 2.22 nmol/L
cyclic guanosine monophosphate changes from baseline (2000 μg, −0 D 22 H 00 M (pretreatment day)): 0.66 ± 0.79 nmol/L
cGMP, mean ± SD (2000 μg, −1 D 02 H 00 M (baseline)): 4.16 ± 1.70 nmol/L
start of cGMP increase after first inhalation (480, 1000, 2000 μg): approximately 2 h
time of cGMP peak after administration (480 and 1000 μg dose): 6 h
mean peak cGMP (480 μg): 11.96 ± 2.80 nmol/L
mean peak cGMP (1000 μg): 16.70 ± 2.96 nmol/L
mean peak cGMP (2000 μg): 32.67 ± 9.48 nmol/L
peak mean±SD cGMP (480 μg): 8.84 ± 1.35 nmol/L
peak mean±SD cGMP (1000 μg): 11.69 ± 1.86 nmol/L
peak mean±SD cGMP (2000 μg): 16.52 ± 4.24 nmol/L
